Data: ChEMBL document CHEMBL1697781, “Assessment of the health effects of chemicals in humans: II. Construction of an adverse effects database for QSAR modeling” (Curr Drug Discov Technol, 2004)

Key:
Details in all cases: human; call rule not given here
Hepatotoxicity [1] = experiment: FDA HLAED, liver enzyme composite activity
Hepatotoxicity [2] = experiment: FDA HLAED, alkaline phosphatase increase
Hepatotoxicity [3] = experiment: FDA HLAED, serum glutamic oxaloacetic transaminase (SGOT) increase
Hepatotoxicity [4] = experiment: FDA HLAED, serum glutamic pyruvic transaminase (SGPT) increase
Hepatotoxicity [5] = experiment: FDA HLAED, lactate dehydrogenase (LDH) increase
Hepatotoxicity [6] = experiment: FDA HLAED, gamma-glutamyl transferase (GGT) increase
For GGT Increase - Index Value in this document: reference of the scale not given here.
For LDH Increase - Index Value in this document: reference of the scale not given here.

| Compound | Composite Activity - Active (Hepatotoxicity [1]) | Composite Activity - Marginal (Hepatotoxicity [1]) | Composite Activity - Score (Hepatotoxicity [1]) | Alkaline Phosphatase Increase - Activity Score (Hepatotoxicity [2]) | Alkaline Phosphatase Increase - Index Value (Hepatotoxicity [2]) | Alkaline Phosphatase Increase - Number of Reports (Hepatotoxicity [2]) | SGOT Increase - Activity Score (Hepatotoxicity [3]) | SGOT Increase - Index Value (Hepatotoxicity [3]) | SGOT Increase - Number of Reports (Hepatotoxicity [3]) | SGPT Increase - Activity Score (Hepatotoxicity [4]) | SGPT Increase - Index Value (Hepatotoxicity [4]) | SGPT Increase - Number of Reports (Hepatotoxicity [4]) | LDH Increase - Activity Score (Hepatotoxicity [5]) | LDH Increase - Index Value (Hepatotoxicity [5]) | LDH Increase - Number of Reports (Hepatotoxicity [5]) | GGT Increase - Activity Score (Hepatotoxicity [6]) | GGT Increase - Index Value (Hepatotoxicity [6]) | GGT Increase - Number of Reports (Hepatotoxicity [6]) | other results |
| --- | --- | --- | --- | --- | --- | --- | --- | --- | --- | --- | --- | --- | --- | --- | --- | --- | --- | --- | --- |
| FCOC(C(F)(F)F)C(F)(F)F [SEVOFLURANE] | 0 | 0 | Inactive | Inactive | 3.1 | < 4 | Inactive | 4.6 | < 4 | Inactive | 0 | < 4 | Inactive | 1.6 | < 4 | Inactive | 0 | < 4 |  |
| CC(C)NCC(O)c1ccc(NS(C)(=O)=O)cc1 (stereo unspecified) [SOTALOL] | 0 | 0 | Inactive | Inactive | 1 | < 4 | Inactive | 3 | < 4 | Inactive | 0 | < 4 | Inactive | 1 | < 4 | Inactive | 1 | < 4 |  |
| C[C@@H]1CN(c2c(F)c(N)c3c(=O)c(C(=O)O)cn(C4CC4)c3c2F)C[C@H](C)N1 [SPARFLOXACIN] | 0 | 0 | Inactive | Inactive | 0 | < 4 | Inactive | 0 | < 4 | Inactive | 0 | < 4 | Inactive | 0 | < 4 | Inactive | 0 | < 4 |  |
| Cc1cn([C@H]2C=C[C@@H](CO)O2)c(=O)[nH]c1=O [STAVUDINE] | 2 | 1 | Active | Inactive | 2.4 | >= 4 | Active | 9.1 | >= 4 | Active | 9.7 | >= 4 | Inactive | 1.8 | < 4 | Marginally Active | 3.6 | >= 4 |  |
| CN(N=O)C(=O)N[C@@H](C=O)[C@@H](O)[C@H](O)[C@H](O)CO [STREPTOZOCIN] | 0 | 0 | Inactive | Inactive | 11.8 | < 4 | Inactive | 0 | < 4 | Inactive | 0 | < 4 | Inactive | 0 | < 4 | Inactive | 0 | < 4 |  |
| Clc1ccc(CSC(Cn2ccnc2)c2ccc(Cl)cc2Cl)cc1 (stereo unspecified) [SULCONAZOLE] |  |  |  | Inactive | 0 | < 4 | Inactive | 0 | < 4 | Inactive | 0 | < 4 | Inactive | 0 | < 4 | Inactive | 0 | < 4 | Composite Activity - Active (Hepatotoxicity [1]; Liver): 0; Composite Activity - Marginal (Hepatotoxicity [1]; Liver): 0; Composite Activity - Score (Hepatotoxicity [1]; Liver): Inactive |
| CC(C(=O)O)c1ccc(C(=O)c2cccs2)cc1 (stereo unspecified) [SUPROFEN] | 0 | 0 | Inactive | Inactive | 6.1 | < 4 | Inactive | 6.1 | < 4 | Inactive | 0 | < 4 | Inactive | 0 | < 4 | Inactive | 0 | < 4 |  |
| Nc1c2c(nc3ccccc13)CCCC2 [TACRINE] |  |  |  | Active | 14.1 | >= 4 | Active | 58.1 | >= 4 | Active | 170 | >= 4 | Active | 19 | >= 4 | Active | 17.4 | >= 4 | Composite Activity - Active (Hepatotoxicity [1]; Liver): 5; Composite Activity - Marginal (Hepatotoxicity [1]; Liver): 0; Composite Activity - Score (Hepatotoxicity [1]; Liver): Active |
| CCOC(=O)c1ccc(C#Cc2ccc3c(c2)C(C)(C)CCS3)nc1 [TAZAROTENE] | 0 | 0 | Inactive | Inactive | 0 | < 4 | Inactive | 0 | < 4 | Inactive | 0 | < 4 | Inactive | 0 | < 4 | Inactive | 0 | < 4 |  |
| COc1cc([C@@H]2c3cc4c(cc3[C@@H](O[C@@H]3O[C@@H]5CO[C@@H](c6cccs6)O[C@H]5[C@H](O)[C@H]3O)[C@H]3COC(=O)[C@H]23)OCO4)cc(OC)c1O [TENIPOSIDE] | 0 | 0 | Inactive | Inactive | 0 | < 4 | Inactive | 0 | < 4 | Inactive | 0 | < 4 | Inactive | 0 | < 4 | Inactive | 0 | < 4 |  |
| COc1cc2nc(N3CCN(C(=O)C4CCCO4)CC3)nc(N)c2cc1OC (stereo unspecified) [TERAZOSIN] | 0 | 0 | Inactive | Inactive | 0.5 | < 4 | Inactive | 1.6 | >= 4 | Inactive | 1.3 | >= 4 | Inactive | 0.5 | < 4 | Inactive | 0.8 | < 4 |  |
| CN(C/C=C/C#CC(C)(C)C)Cc1cccc2ccccc12 [TERBINAFINE] | 0 | 1 | Inactive | Inactive | 1.1 | >= 4 | Marginally Active | 3.1 | >= 4 | Inactive | 2.8 | >= 4 | Inactive | 1.1 | >= 4 | Inactive | 2.6 | >= 4 |  |
